Assay results as given in patent US20250231185A1, “Coronavirus T Cell Epitopes, Megapools and Uses Thereof” (La Jolla Institute for Immunology, priority 2021, published 2025).
Entries after “also recorded” stand apart in the source; their conditions may differ. Where two headings read alike, the source gives them in different places.

Columns and labels:
CD4+ T cells [1] = test: Meta-analysis of published SARS-CoV-2 CD4 T cell epitope data curated in the IEDB (25 studies); assay type: cell-based, human
CD4+ T cells [2] = conditions: cited from earlier work; for Allele(s): HLA class II allele(s) identified as MHC restriction elements of the CD4 epitope; for Restriction: T cell subset (CD4 or CD8) recognizing the SARS-CoV-2 epitope; for Dominant: SARS-CoV-2-derived CD4 epitopes, Yes = recognized by 3 or more donors/different studies
[3] = CD4R (D) Megapool, non-spike antigens, dominant = recognized in 3 or more donors/studies
[4] = CD4RE megapool peptides (non-spike SARS-CoV-2 CD4 epitopes), dominant = recognized by 3 or more donors/different studies

| Substance | Dominant (CD4+ T cells [1]; [3]) | Dominant (CD4+ T cells [1]; [4]) | other results |
| --- | --- | --- | --- |
| 2311 (IGYYRRATRRIRGGD) [compound 2311] | Yes (more dominant epitopes are defined by being recognized by 3 or more donors/different studies) | – | – |
| 2302 (TSRTLSYYKLGASQRVA) [compound 2302] | Yes (more dominant epitopes are defined by being recognized by 3 or more donors/different studies) | – | – |
| 2619 (YRINWITGGIAIAMA) [compound 2619] | – | Yes (more dominant epitopes are defined by being recognized by 3 or more donors/different studies) | – |
| 2638 (SWFTALTQHGKEDLK) [compound 2638] | – | Yes (more dominant epitopes are defined by being recognized by 3 or more donors/different studies) | – |
| 2641 (YYRRATRRIRGGDGK) [compound 2641] | – | Yes (more dominant epitopes are defined by being recognized by 3 or more donors/different studies) | – |
| 2329 (GMEVTPSGTWLTYTGAIKLD) [compound 2329] | Yes (more dominant epitopes are defined by being recognized by 3 or more donors/different studies) | – | – |
| 2645 (KDGIIWVATEGALNT) [compound 2645] | – | Yes (more dominant epitopes are defined by being recognized by 3 or more donors/different studies) | – |
| 2322 (KKPRQKRTATKAYNV) [compound 2322] | Yes (more dominant epitopes are defined by being recognized by 3 or more donors/different studies) | – | – |
| 2634 (SYYKLGASQRVAGDS) [compound 2634] | – | Yes (more dominant epitopes are defined by being recognized by 3 or more donors/different studies) | – |
| 2656 (WPQIAQFAPSASAFF) [compound 2656] | – | Yes (more dominant epitopes are defined by being recognized by 3 or more donors/different studies) | – |
| 2632 (SRTLSYYKLGASQRV) [compound 2632] | – | Yes (more dominant epitopes are defined by being recognized by 3 or more donors/different studies) | – |
| 2621 (MWLSYFIASFRLFAR) [compound 2621] | – | Yes (more dominant epitopes are defined by being recognized by 3 or more donors/different studies) | – |
| 2659 (PSGTWLTYTGAIKLD) [compound 2659] | – | Yes (more dominant epitopes are defined by being recognized by 3 or more donors/different studies) | – |
| 2289 (VLAAVYRINWITGGI) [compound 2289] | Yes (more dominant epitopes are defined by being recognized by 3 or more donors/different studies) | – | – |
| 2616 (FYVYSRVKNLNSSRV) [compound 2616] | – | Yes (more dominant epitopes are defined by being recognized by 3 or more donors/different studies) | – |
| 2319 (DAALALLLLDRLNQL) [compound 2319] | Yes (more dominant epitopes are defined by being recognized by 3 or more donors/different studies) | – | – |
| 2305 (SYYKLGASQRVAGDS) [compound 2305] | Yes (more dominant epitopes are defined by being recognized by 3 or more donors/different studies) | – | – |
| 2640 (IGYYRRATRRIRGGD) [compound 2640] | – | Yes (more dominant epitopes are defined by being recognized by 3 or more donors/different studies) | – |
| 2646 (AIVLQLPQGTTLPKG) [compound 2646] | – | Yes (more dominant epitopes are defined by being recognized by 3 or more donors/different studies) | – |
| 2316 (KDGIIWVATEGALNT) [compound 2316] | Yes (more dominant epitopes are defined by being recognized by 3 or more donors/different studies) | – | – |
| 2649 (LLLLDRLNQLESKMS) [compound 2649] | – | Yes (more dominant epitopes are defined by being recognized by 3 or more donors/different studies) | – |
| 2298 (IAGHHLGRCDIKDLP) [compound 2298] | Yes (more dominant epitopes are defined by being recognized by 3 or more donors/different studies) | – | – |
| 2629 (IKDLPKEITVATSRT) [compound 2629] | – | Yes (more dominant epitopes are defined by being recognized by 3 or more donors/different studies) | – |

| Substance | Dominant (CD4+ T cells [1]; [3]) | Dominant (CD4+ T cells [1]; [4]) | other results |
| --- | --- | --- | --- |
| 2658 (GMEVTPSGTWLTYTGAIKLD) [compound 2658] | – | Yes (more dominant epitopes are defined by being recognized by 3 or more donors/different studies) | – |
| 2314 (RWYFYYLGTGPEAGL) [compound 2314] | Yes (more dominant epitopes are defined by being recognized by 3 or more donors/different studies) | – | – |
| 2326 (YKHWPQIAQFAPSAS) [compound 2326] | Yes (more dominant epitopes are defined by being recognized by 3 or more donors/different studies) | – | – |
| 2320 (LLLLDRLNQLESKMS) [compound 2320] | Yes (more dominant epitopes are defined by being recognized by 3 or more donors/different studies) | – | – |
| 2321 (AAEASKKPRQKRTAT) [compound 2321] | Yes (more dominant epitopes are defined by being recognized by 3 or more donors/different studies) | – | – |
| 2630 (KEITVATSRTLSYYK) [compound 2630] | – | Yes (more dominant epitopes are defined by being recognized by 3 or more donors/different studies) | – |
| 2317 (AIVLQLPQGTTLPKG) [compound 2317] | Yes (more dominant epitopes are defined by being recognized by 3 or more donors/different studies) | – | – |
| 2345 (QEEVQELYSPIFLIV) [compound 2345] | Yes (more dominant epitopes are defined by being recognized by 3 or more donors/different studies) | – | – |
| 2301 (KEITVATSRTLSYYK) [compound 2301] | Yes (more dominant epitopes are defined by being recognized by 3 or more donors/different studies) | – | – |
| 2330 (PSGTWLTYTGAIKLD) [compound 2330] | Yes (more dominant epitopes are defined by being recognized by 3 or more donors/different studies) | – | – |
| 2312 (YYRRATRRIRGGDGK) [compound 2312] | Yes (more dominant epitopes are defined by being recognized by 3 or more donors/different studies) | – | – |
| 2674 (QEEVQELYSPIFLIV) [compound 2674] | – | Yes (more dominant epitopes are defined by being recognized by 3 or more donors/different studies) | – |
| 13 (LIFLWLLWPVTLACF) [compound 13] | – | – | Allele(s) (CD4+ T cells [2]): DQB1*05:01, DQB1*05:03,; also recorded: DRB1*01:02; Restriction (CD4+ T cells [2]): CD4 |
| 85 (LIRQGTDYKHWPQIA) [compound 85] | – | – | Dominant (CD4+ T cells [2]): Yes (more dominant epitopes are defined by being recognized by 3 or more donors/different studies); Restriction (CD4+ T cells [2]): CD4 |
| 95 (GTWLTYTGAIKLDDK) [compound 95] | – | – | Dominant (CD4+ T cells [2]): Yes (more dominant epitopes are defined by being recognized by 3 or more donors/different studies); Restriction (CD4+ T cells [2]): CD4 |
| 61 (TRRIRGGDGKMKDLS) [compound 61] | – | – | Restriction (CD4+ T cells [2]): CD4 |
| 78 (KKPRQKRTATKAYNV) [compound 78] | – | – | Dominant (CD4+ T cells [2]): Yes (more dominant epitopes are defined by being recognized by 3 or more donors/different studies); Restriction (CD4+ T cells [2]): CD4 |
| 8 (FLFLTWICLLQFAYA) [compound 8] | – | – | Allele(s) (CD4+ T cells [2]): DQB1*05:01, DQB1*05:03,; also recorded: DRB1*01:02; Restriction (CD4+ T cells [2]): CD4 |
| 57 (GVPINTNSSPDDQIG) [compound 57] | – | – | Restriction (CD4+ T cells [2]): CD4 |
| 25 (TNILLNVPLHGTILT) [compound 25] | – | – | Allele(s) (CD4+ T cells [2]): DRB1*10:01, DRB1*12:02,; also recorded: DRB1*14:01, DRB1*14:06,; also recorded: DRB1*15:01, DRB1*16:02; Dominant (CD4+ T cells [2]): Yes (more dominant epitopes are defined by being recognized by 3 or more donors/different studies); Restriction (CD4+ T cells [2]): CD4 |
| 48 (IGNYKLNTDHSSSSD) [compound 48] | – | – | Allele(s) (CD4+ T cells [2]): DRB1*03:01; Restriction (CD4+ T cells [2]): CD4 |
| 70 (IWVATEGALNTPKDH) [compound 70] | – | – | Restriction (CD4+ T cells [2]): CD4 |
